The record followed here is PubChem BioAssay AID602210 (Sanford-Burnham Center for Chemical Genomics, 2012).

The source made the active and inactive calls. How the calls were made is not given here. Where only a bound is given, the exact number is not on record here.

A short description of this assay: H9c2 cardiomyoblast viability modulators under 2-DG – cell-based, ATPlite luminescence, rat, set 2, myocardial damage modulator project, dose response (AID 602210). As to conditions: H9c2 rat cardiomyoblasts, 2-deoxyglucose-induced death, 2 h. (Cellular ATP, detected with luciferase, serves as a proxy for viable cell number.)
As to `Cn1c(=O)[nH]c(=O)c2c1nc(N(CCO)Cc1ccccc1)n2CCCc1ccccc1`, the IC50 (in general, the point on the concentration scale where inhibition reaches its midpoint) was > 79 µM (inactive).
The figure for `O=c1[nH]c(CSc2nnc(-c3cccnc3)n2C2CCCCC2)nc2ccccc12` is > 79 µM (inactive); for `CC(=O)Nc1cccc(NC(=O)c2cc(-c3cccnc3)nc3ccc(Cl)cc23)c1` it is > 79 µM (inactive); for `CS(=O)(=O)c1ccc(-c2cnc3c(NC=O)cc(-c4ccsc4)cn23)cc1` it is 23 µM (inactive).
In the case of `COc1ccccc1N1CCN(C(=O)c2ccc3nc(-c4ccco4)c(-c4ccco4)nc3c2)CC1`, the IC50 was 14 µM (inactive).
The figure for `COc1ccc(-c2cc(NC=O)c3ncc(-c4ccccc4)n3c2)cc1OC` is > 79 µM (inactive).
The figure for `Cc1ccc(-c2nn3c(-c4ccco4)nnc3c3ccccc23)cc1S(=O)(=O)NCC1CCCO1` (centres undefined) is 27.1 µM (inactive); for `COc1ccc(OCC(O)Cn2c(Nc3cccc(C)c3)nc3c2c(=O)n(C)c(=O)n3C)cc1` (centres undefined) it is 34 µM (inactive).
The figure for `CCOC(=O)C1=C(COC(=O)/C=C/c2ccc(F)cc2)NC(=O)NC1C` (centres undefined) is 18.1 µM (inactive); for `CC(C)(C)OC(=O)N1CCC(NC(=O)c2nc[nH]c2C(=O)NCC(=O)OCc2ccccc2)CC1` it is 4.3 µM.
`COCCCN(Cc1ccco1)C(=O)Cn1ncc2c([nH]c3ccccc32)c1=O`: the IC50 is 25.5 µM (inactive).
On to `COc1cc(/C=N/NC(=O)c2cccnc2)ccc1OCC(=O)Nc1ccccc1Cl`, for which the IC50 was 7.84 µM.
The same measure for `COc1ccccc1-c1cc(NC=O)c2ncc(-c3cccc(C(C)=O)c3)n2c1`: > 79 µM (inactive).
The figure for `O=c1c2ccccc2nc(CSc2ncnc3nc[nH]c23)n1-c1ccc(Cl)c(Cl)c1` is 14.7 µM (inactive).
The figure for `O=C(Nc1ccccc1)c1nc[nH]c1C(=O)NCCCCNC(=O)c1[nH]cnc1C(=O)Nc1ccccc1` is 4.11 µM; for `COc1ccc(N(CC(=O)Nc2cccc(C(C)=O)c2)S(=O)(=O)c2ccc(NC(C)=O)cc2)cc1` it is 13.4 µM (inactive); for `CCOc1cc(-c2cc(-c3ccc(N)cc3)nc(N)c2C#N)ccc1O` it is 11.8 µM (inactive).
On to `CC(=O)Nc1cccc(-c2cc(NC(C)=O)c3ncc(-c4cccc(C(C)=O)c4)n3c2)c1`, for which the IC50 was 13.1 µM (inactive).
For `COc1cc(OC)cc(C(=O)Nc2ccc(-c3nc4ccccc4o3)cc2)c1`, the IC50 is 13.7 µM (inactive).
On to `COc1ccc(-c2cc(-c3nnc(COC(=O)c4ccncc4)o3)c3ccccc3n2)cc1OC`, for which the IC50 is 18.1 µM (inactive).
For the molecule `CC(=O)c1cccc(NC(=O)Nc2ccc3c(c2)N(C)C(=O)CS3)c1`, the IC50 is > 79 µM (inactive).
The figure for `CCN(CC)C(=O)c1[nH]cnc1C(=O)NCC(=O)OCc1ccccc1` is 8.7 µM.
For `O=C(Nc1ccc(C(=O)N2CCOCC2)cc1)c1cnn2c(C(F)F)cc(-c3ccccc3)nc12`, the IC50 is > 79 µM (inactive).
The same measure for `CCn1c(O)c(/C=N/N=C2CCCCC2)c2cc(C3=NNC(=O)CC3)ccc21`: 21.6 µM (inactive); for `COc1ccc(CN(C)C(=O)C(Cc2ccccc2)NC(=O)c2ccccc2)cc1F` (centres undefined): 10.5 µM (inactive); for `Cc1c(/C=N/NC(=O)c2ccc(O)cc2)c2ccccn2c1C(=O)c1ccc(F)cc1`: > 79 µM (inactive).
Consider `COc1ccc(C(=O)Nc2nc(-c3ccccn3)cs2)cc1S(=O)(=O)N1CCOCC1`, for which the IC50 was 26.8 µM (inactive).
The figure for `COc1cccc(-c2cnc3c(NC=O)cc(-c4ccc(O)c(OC)c4)cn23)c1` is 8.51 µM.
The figure for `O=C(CN1CCN(Cc2ccccc2)CC1)Nc1ccc([N+](=O)[O-])cc1C(=O)Nc1ccccc1F` is 24.6 µM (inactive); for `COC(=O)c1ccc(C(=O)OC)c(NC(=O)COC(=O)C23CC4CC(CC(O)(C4)C2)C3)c1` it is 10.5 µM (inactive).
The same measure for `CCOC(=O)c1cnc(Nc2nc3ccccc3o2)nc1CSc1nnc(C)s1`: 27.3 µM (inactive); for `CCN(CC)S(=O)(=O)c1ccc(Nc2nc3ccccc3n3nnnc23)cc1`: 7.9 µM.
On to `CCOc1cccc(-c2nn3c(-c4ccccn4)nnc3s2)c1`, for which the IC50 was 30.2 µM (inactive).
`COc1ccc(CNn2c(-c3cccs3)nc3ccccc3c2=O)cc1OC`: the IC50 was 12.9 µM (inactive).
`COc1cc(C(=O)N/N=C/c2ccc(OC(=O)c3ccccc3Cl)cc2)ccc1O`: the IC50 is > 79 µM (inactive).
The same measure for `c1ccc(N2CCOCC2)c(Nc2nc3ccccc3n3cnnc23)c1`: 33.1 µM (inactive); for `Cc1c(C(=O)Nc2ccc3nc(N4CCOCC4)sc3c2)oc2ccccc12`: 15.8 µM (inactive); for `COc1ccc(OC)c(Nc2nc(N)c([N+](=O)[O-])c(N3CCOCC3)n2)c1`: 27.5 µM (inactive).
The same measure for `CC(C)(C)OC(=O)CNC(=O)c1[nH]cnc1C(=O)NCC(=O)OCc1ccccc1`: 4.16 µM; for `CC(C)(C)OC(=O)CNC(=O)c1[nH]cnc1C(=O)Nc1ccc(CNC(=O)OC(C)(C)C)cc1`: 5.09 µM; for `COc1cc(C(=O)N/N=C/c2ccc(OC(=O)c3ccccc3)c(OC)c2)ccc1O`: 14.8 µM (inactive).
Regarding `COc1ccc(-c2cc(C(=O)Nc3ccccc3N3CCOCC3)c3ccccc3n2)cc1OC`, the IC50 was 7.58 µM.
The figure for `O=C(NCc1ccco1)C(c1ccccc1)N(C(=O)Cc1cccs1)c1ccccc1F` (centres undefined) is 22.9 µM (inactive); for `CCOCc1c(C(=O)NC2=Nc3ccccc3NC(CC)=C2C(=O)OCC)oc2ccccc12` it is 4.85 µM.
Regarding `CCOC(=O)C1=C(C)N=c2s/c(=C\c3ccncc3)c(=O)n2C1c1ccc2c(c1)OCO2` (centres undefined), the IC50 was 30.3 µM (inactive).
The figure for `CC(=O)c1ccc(-c2cnc3c(NC=O)cc(-c4cccc(NS(C)(=O)=O)c4)cn23)cc1` is 18 µM (inactive).
The same measure for `COc1ccc(Cl)cc1-c1nc(-c2ccc(NC(=O)c3cccs3)cc2)no1`: > 79 µM (inactive); for `O=C(c1ccc(-c2nc3ccccc3s2)o1)N1CCN(c2ccccc2O)CC1`: 13.2 µM (inactive); for `Cc1ncc(CO)c2cc(C(=O)Nc3ccccc3Cl)c(=Nc3cccc(C(N)=O)c3)oc12`: 2.43 µM.
The figure for `CCCNC(=O)c1ccc(N2CCC3(CC2)CC(c2ccccc2)=NO3)c(NC(=O)c2ccco2)c1` is 8.75 µM; for `COc1cc2[nH]c(=O)n3nc(-c4ccccc4)nc3c2cc1OC` it is 12.1 µM (inactive).
As for `CC(C)C1Nc2ccc(C(=O)N3CCN(c4ccccn4)CC3)cc2NC1=O` (centres undefined), the IC50 was > 79 µM (inactive).
The figure for `Nc1c(C(=O)NC2CC2)c2nc3ccccc3nc2n1-c1ccc2c(c1)OCO2` is > 79 µM (inactive).
The same measure for `CCN(CC)S(=O)(=O)c1ccc(N2CCOCC2)c(NC(=O)c2cc(-c3ccccn3)nc3ccccc23)c1`: 4.51 µM; for `Cn1nc(C(=O)Nc2nc(-c3ccccn3)cs2)c2ccccc2c1=O`: > 79 µM (inactive); for `CCC1(CC)NC(=O)N(CC(=O)OCC(=O)Nc2ccccc2[N+](=O)[O-])C1=O`: 21.4 µM (inactive).
Consider `O=C(N/N=C/c1cn(-c2ccccc2)nc1-c1cccnc1)c1ccccc1`, for which the IC50 was > 79 µM (inactive).
The same measure for `Cn1c(-n2c(CCCN3C(=O)c4ccccc4C3=O)nc3ccccc3c2=O)nc2ccccc21`: > 79 µM (inactive); for `COc1cc(/C=c2\s/c(=C(/C#N)C(=O)N3CCCC3)n(-c3ccccc3)c2=O)ccc1O`: > 79 µM (inactive).
The same measure for `COCCn1nnnc1CN(CCc1ccccc1)Cc1cc2cc(OC)ccc2[nH]c1=O`: > 79 µM (inactive); for `S=C(Nc1ccc(N2CCOCC2)cc1)Nc1ccc2nc(-c3ccco3)c(-c3ccco3)nc2c1`: 11.3 µM (inactive).
The same measure for `COc1ccc(OC)c(/C=N/NC(=O)c2cc3c(OC)c(OC)ccc3[nH]2)c1`: 8.62 µM; for `CC(=O)c1ccc(-c2cnc3c(NC=O)cc(-c4cccc(C(=O)N(C)C)c4)cn23)cc1`: 12.2 µM (inactive); for `CCN(C[C@H]1N[C@@](CC)(C(=O)OC)[C@H]2C(=O)N(Cc3ccccc3)C(=O)[C@@H]12)C(=O)c1ccc(C(C)(C)C)cc1`: 3.95 µM.
Regarding `COc1cc(OC)cc(-c2cc3nc(C)c(CCC(=O)Nc4nc(C)cs4)c(C)n3n2)c1`, the IC50 was 6.24 µM.
The figure for `O=C(CNC(=O)c1nc[nH]c1C(=O)NCC(=O)OCc1ccccc1)OCc1ccccc1` is 0.953 µM; for `COc1ccc(-c2ccc3c(c2)S(=O)(=O)c2cccc(C(=O)NC[C@@H]4CCCO4)c2C3=O)cc1OC` it is 13.4 µM (inactive); for `O=C(NCC(=O)N(Cc1cccs1)C(C(=O)NC1CCCC1)c1ccco1)c1cccs1` (centres undefined) it is 24.5 µM (inactive).
With `COc1cc(NC(=O)c2csc(-c3ccncc3)n2)cc(C(=O)Nc2cccc(C(F)(F)F)c2)c1`, the IC50 was 7.25 µM.
The same measure for `O=C(Nc1cccc(Cl)c1)c1nc[nH]c1C(=O)NCCCNC(=O)c1[nH]cnc1C(=O)Nc1cccc(Cl)c1`: > 79 µM (inactive); for `CCOC(=O)c1cc2c(=O)n3cccc(C)c3nc2n(CCCOC)c1=NC(=O)c1cccnc1`: 11.3 µM (inactive); for `COCCn1ccc2c(OCC(=O)Nc3ccccc3OC)cccc2c1=O`: 22.1 µM (inactive).
The figure for `O=C(N/N=C/c1ccccn1)c1ccc(NC(=O)c2cccc([N+](=O)[O-])c2)cc1` is > 79 µM (inactive); for `NS(=O)(=O)c1ccc(CCNc2ccn3nc(-c4ccc(OCCN5CCOCC5)cc4)cc3n2)cc1` it is 45.8 µM (inactive); for `O=C(CCCn1c(SCC(=O)c2ccc(O)c(O)c2)nc2ccccc2c1=O)NCC1CCCO1` (centres undefined) it is 36.8 µM (inactive).
The same measure for `COc1cc(C(=O)NCC(=O)N/N=C/c2ccc(-c3cccc([N+](=O)[O-])c3)o2)cc(OC)c1OC`: 17.5 µM (inactive); for `COc1cccc(/C=N/NC(=O)c2nc(-c3ccccc3)cc(-c3ccccc3)n2)c1`: > 79 µM (inactive); for `COc1ccc(-c2cc(C(=O)N(C)Cc3nc4ccccc4c(=O)[nH]3)c3ccccc3n2)cc1OC`: 10.3 µM (inactive).
With `COc1cccc(/C=N/Nc2nc3ccccc3n3cnnc23)c1`, the IC50 was 3.49 µM.
